Experimental data taken from US12329876B2, “Porous bioresorbable radiopaque embolic microspheres for drug delivery” (REVA Medical, LLC, priority 2018, dated 2025).

Test: degradation kinetics (mass loss) of copolymers and of microbeads from copolymer blends (FIGS. 12A, 12B)
Assay type: physicochemical
From the text: The illustrative examples of achievable degradation profile are presented on FIGS. 12A and 12B.
Adjusting ratio of iodinated structural component (PrD-diI2DAT) and rubbery component (PEG400 or PEG1000), ratio of Carbonate to Oxalate bonds in single copolymer or utilizing blends of copolymers, a wide spectrum of degradation profiles could be achieved, including multi-step degradation.

- degradation kinetic (mass loss), result in words: slow degradation
Substance: Copolymer 50% PrD-di I2DAT-co-50% PEG1K with 100% carbonate bonds [Formula #4]
